Literature values, collected in patent US20070250301A1, “Normalizing cell assay data for models” (Cytokinetics, Inc., A Delaware Corporation, priority 2006, published 2007).
Numbered stars: 1 amine (or outer) side, 2 acyl side, 3 side chain; on linkers, the order of the positions; unused ones are H or OH. Bridge positions count the residues as written; N and C are the ends. Square brackets hold non-standard residues; d marks the D form. Peptide text beside a SMILES is read from it. Trp(2-yl) = O=C([C@H](Cc1c([*:3])[nH]c2ccccc12)N[*:1])[*:2]; Leu(4R-OH,5-OH) = C[C@](O)(CO)C[C@H](N)C(=O)O; cisHyp = O=C(O)[C@@H]1C[C@H](O)CN1

Legend:
[1] = test system: bile flow; conditions: rats; resulting in cholestatic injury
[2] = test system: filamentous F actin around canaliculi and tight junctions

Row | SMILES | effect on bile flow [1] | effect on filamentous F actin [2]
1 | C=C1[C@@H](C)[C@H]2[C@H](Cc3ccccc3)NC(=O)[C@]23OC(=O)/C=C/[C@H](O)CCC[C@@H](C)C/C=C/[C@H]3[C@@H]1O [cytochalasin B] | prompt arrest of bile flow | –
2 | C[C@@H]1NC(=O)[C@H](C[C@@](C)(O)CO)NC(=O)[C@@H]2Cc3c([nH]c4ccccc34)SC[C@H](NC(=O)[C@@H]([C@H](C)O)NC1=O)C(=O)N1C[C@@H](O)C[C@H]1C(=O)N[C@@H](C)C(=O)N2 [phalloidin] (cyclo(A[dT]C[cisHyp]A[Trp(2-yl)][Leu(4R-OH,5-OH)]); thioether 3-6) | – | increase in filamentous F actin
